Test results taken from article PMC6690547, “The triphenylmethane dye brilliant blue G is only moderately effective at inhibiting amyloid formation by human amylin or at disaggregating amylin amyloid fibrils, but interferes with amyloid assays; Implications for inhibitor design” (PLoS ONE, 2019).

Molecular target: T1, human amylin (h-amylin) (Homo sapiens, UniProt P10997)
T1 construct: gene IAPP; synthetic 37 residue polypeptide with a disulfide bridge connecting Cys-2 and Cys-7 and an amidated C-terminus; measured as amyloid fibrils
T1 sequence (P10997 34-70): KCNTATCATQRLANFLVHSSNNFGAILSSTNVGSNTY
Assay: co-sedimentation of BBG with h-amylin amyloid fibrils (supernatant absorbance at […] nm); supported by TEM/AFM of inhibited and remodeled fibrils and loss of thioflavin-T signal
Type: binding
Excerpt: The result is consistent with binding of BBG to h-amylin amyloid fibers

CCOc1ccc(Nc2ccc(/C(=C3C=C/C(=[N+](/CC)Cc4cccc(S(=O)(=O)[O-])c4)C=C/3C)c3ccc(N(CC)Cc4cccc(S(=O)(=O)O)c4)cc3C)cc2)cc1 [BBG, Sodium;3-[[4-[(E)-[4-(4-ethoxyanilino)phenyl]-[4-[ethyl-[(3-sulfonatophenyl)methyl]azaniumylidene]-2-methylcyclohexa-2,5-dien-1-ylidene]methyl]-N-ethyl-3-methylanilino]methyl]benzenesulfonate]
co-sedimentation of BBG with h-amylin amyloid fibrils (supernatant absorbance at): significant BBG pellets with the fiber. The result is consistent with binding of BBG to h-amylin amyloid fibers
